US20250163032A1, “NOVEL MOLECULES AS INHIBITORS OF DNA DAMAGE REPAIR PATHWAY” (VRise Therapeutics, Inc., priority 2023, published 2025)

Target: USP1/UAF1 (Homo sapiens, UniProt O94782)
Test: USP1/UAF 1 assay (ubiquitin-rhodamine110 fluorometric deubiquitinase assay)
Type: biochemical
Settings: for inhibition at 1 µM: read-out: Biochemical assay % inhibition @1 μM
Experimental: Test-1: USP1/UAF 1 Assay:
Deubiquitinase activity of USP1/UAF1 was monitored in a fluorometric assay using ubiquitin-rhodamine110 as substrate. Briefly, enzymatic reactions were conducted in an assay buffer composed of 50 mM HEPES, pH 7.8, 0.5 mM EDTA, 100 mM NaCl, 1 mM TCEP, 0.1 mg/mL BSA, and 0.01% Tween-20 that contained 1 nM USP1/UAF1. Compounds were tested at desired concentrations. The plates were incubated for 15 min to attain equilibrium, and then the enzymatic reaction was initiated by dispensing 150 nM Ub-Rho solution. Fluorescence measurement was performed in a high throughput CCD imager, where kinetic measurements of rhodamine fluorescence were acquired using a 480 nm excitation/540 nm emission filter set. The change in fluorescence intensity over a 5-minute reaction period (typically associated with less than 10% substrate conversion) was normalized against no-inhibitor and no-enzyme controls and the resulting percent inhibition data were fitted to a sigmoidal dose response using a four-parameter Hill equation. Data was be analysed and percent inhibition and/or IC50 for each test compound is calculated accordingly.

USP1/UAF1, sequence (O94782 whole entry): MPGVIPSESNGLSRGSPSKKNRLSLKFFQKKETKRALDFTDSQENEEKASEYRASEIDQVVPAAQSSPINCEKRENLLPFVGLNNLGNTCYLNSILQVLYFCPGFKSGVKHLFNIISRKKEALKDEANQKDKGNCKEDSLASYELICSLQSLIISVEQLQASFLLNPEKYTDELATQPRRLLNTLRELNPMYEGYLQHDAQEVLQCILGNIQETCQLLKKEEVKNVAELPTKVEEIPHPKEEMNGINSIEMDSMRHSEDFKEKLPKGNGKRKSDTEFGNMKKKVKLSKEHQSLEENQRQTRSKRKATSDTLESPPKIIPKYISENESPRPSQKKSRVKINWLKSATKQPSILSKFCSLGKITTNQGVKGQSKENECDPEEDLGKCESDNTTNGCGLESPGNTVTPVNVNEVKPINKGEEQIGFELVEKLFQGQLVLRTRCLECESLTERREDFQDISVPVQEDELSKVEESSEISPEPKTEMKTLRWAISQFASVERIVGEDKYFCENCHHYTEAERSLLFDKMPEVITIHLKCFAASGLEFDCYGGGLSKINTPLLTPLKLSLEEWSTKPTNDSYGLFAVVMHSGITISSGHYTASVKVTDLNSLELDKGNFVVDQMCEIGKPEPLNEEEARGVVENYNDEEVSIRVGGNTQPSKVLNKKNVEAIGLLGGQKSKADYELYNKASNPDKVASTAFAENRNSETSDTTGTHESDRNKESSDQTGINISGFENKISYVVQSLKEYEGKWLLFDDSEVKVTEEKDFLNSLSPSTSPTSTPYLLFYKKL
USP1/UAF1, sequence (Q8TAF3 whole entry partner): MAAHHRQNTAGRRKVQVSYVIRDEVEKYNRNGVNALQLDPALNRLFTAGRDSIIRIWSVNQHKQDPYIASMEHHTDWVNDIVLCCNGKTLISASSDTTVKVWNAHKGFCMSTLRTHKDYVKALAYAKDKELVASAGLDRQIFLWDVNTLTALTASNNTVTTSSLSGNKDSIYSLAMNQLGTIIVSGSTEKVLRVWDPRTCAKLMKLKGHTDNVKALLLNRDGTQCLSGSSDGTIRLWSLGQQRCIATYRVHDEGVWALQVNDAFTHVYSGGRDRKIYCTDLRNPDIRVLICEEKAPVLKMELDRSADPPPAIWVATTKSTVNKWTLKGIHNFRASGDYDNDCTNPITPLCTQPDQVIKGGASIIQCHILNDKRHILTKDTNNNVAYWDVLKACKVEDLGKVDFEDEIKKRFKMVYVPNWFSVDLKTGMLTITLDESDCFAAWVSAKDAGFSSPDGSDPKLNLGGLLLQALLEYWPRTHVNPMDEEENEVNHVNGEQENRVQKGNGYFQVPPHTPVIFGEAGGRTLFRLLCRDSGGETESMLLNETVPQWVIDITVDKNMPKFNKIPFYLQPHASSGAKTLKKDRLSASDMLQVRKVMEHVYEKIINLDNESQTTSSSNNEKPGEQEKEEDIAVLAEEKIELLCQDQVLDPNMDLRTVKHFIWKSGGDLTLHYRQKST

Compound | inhibition at 1 µM [%] | inhibition at 10 µM (read-out: Biochemical assay % inhibition @10 μM) [%]
Cn1cc(C(F)(F)F)nc1-c1ccc(CNc2nc(-c3cc(F)cc(F)c3F)nc3c2CCC3)cc1 [Example 74, N-(4-(1-methyl-4-(trifluoromethyl)-1H-imidazol-2-yl)benzyl)-2-(2,3,5-trifluorophenyl)-6,7-dihydro-5H-cyclopenta[d]pyrimidin-4-amine] | 50 to 75 | –
COc1ccc(-c2nc(NCc3ccc(-c4nc(C(F)(F)F)cn4C)cc3)c3[nH]cnc3n2)c(OC)c1 [Example 53, 2-(2,4-dimethoxyphenyl)-N-(4-(1-methyl-4-(trifluoromethyl)-1H-imidazol-2-yl)benzyl)-7H-purin-6-amine] | 50 to 75 | –
Cn1cc(C(F)(F)F)nc1-c1ccc(CNc2nc(-c3cc(Cl)ccc3F)nc3c2CCC3)cc1 [Example 61, 2-(5-chloro-2-fluorophenyl)-N-(4-(1-methyl-4-(trifluoromethyl)-1H-imidazol-2-yl)benzyl)-6,7-dihydro-5H-cyclopenta[d]pyrimidin-4-amine] | 50 to 75 | –
COc1ccc(-c2nc(NCc3ccc(-c4nc(C(F)(F)F)cn4C)cc3)c3[nH]cnc3n2)c(OC)n1 [Example 43, 2-(2,6-dimethoxypyridin-3-yl)-N-(4-(1-methyl-4-(trifluoromethyl)-1H-imidazol-2-yl)benzyl)-7H-purin-6-amine] | 50 to 75 | –
Cn1cc(C(F)(F)F)nc1-c1ccc(CNc2nc(-c3cc(C(F)(F)F)ccc3F)nc3nc[nH]c23)cc1 [Example 44, 2-(2-fluoro-5-(trifluoromethyl)phenyl)-N-(4-(1-methyl-4-(trifluoromethyl)-1H-imidazol-2-yl)benzyl)-7H-purin-6-amine] | 50 to 75 | –
CSc1ccc(-c2nc(NCc3ccc(-c4nc(C(F)(F)F)cn4C)cc3)c3[nH]cnc3n2)cc1 [Example 56, N-(4-(1-methyl-4-(trifluoromethyl)-1H-imidazol-2-yl)benzyl)-2-(4-(methylthio)phenyl)-7H-purin-6-amine] | 50 to 75 | –
COc1cccc(F)c1-c1nc(NCc2ccc(-c3nc(C(F)(F)F)cn3C)cc2)c2[nH]cnc2n1 [Example 30, 2-(2-fluoro-6-methoxyphenyl)-N-(4-(1-methyl-4-(trifluoromethyl)-1H-imidazol-2-yl)benzyl)-7H-purin-6-amine] | – | > 75
Cn1cc(C(F)(F)F)nc1-c1ccc(CNc2nc(-c3cc(Cl)cc(Cl)c3)nc3c2CCC3)cc1 [Example 73, 2-(3,5-dichlorophenyl)-N-(4-(1-methyl-4-(trifluoromethyl)-1H-imidazol-2-yl)benzyl)-6,7-dihydro-5H-cyclopenta[d]pyrimidin-4-amine] | 50 to 75 | –
Cn1cc(C(F)(F)F)nc1-c1ccc(CNc2nc(-c3cc(F)cc(F)c3)nc3nc[nH]c23)cc1 [Example 41, 2-(3,5-difluorophenyl)-N-(4-(1-methyl-4-(trifluoromethyl)-1H-imidazol-2-yl)benzyl)-7H-purin-6-amine] | 50 to 75 | –
Cn1cc(C(F)(F)F)nc1-c1ccc(CNc2nc(-c3cccc(F)c3C(F)(F)F)nc3nc[nH]c23)cc1 [Example 54, 2-(3-fluoro-2-(trifluoromethyl)phenyl)-N-(4-(1-methyl-4-(trifluoromethyl)-1H-imidazol-2-yl)benzyl)-7H-purin-6-amine] | 50 to 75 | –
CCOc1ccc(-c2nc3c(c(NCc4ccc(-c5nc(C(F)(F)F)cn5C)cc4)n2)CCC3)cn1 [Example 62, 2-(6-ethoxypyridin-3-yl)-N-(4-(1-methyl-4-(trifluoromethyl)-1H-imidazol-2-yl)benzyl)-6,7-dihydro-5H-cyclopenta[d]pyrimidin-4-amine] | 50 to 75 | –
COc1ccc(OC)c(-c2nc3c(c(NCc4ccc(-c5nc(C(F)(F)F)cn5C)cc4)n2)CCC3)c1 [Example 66, 2-(2,5-dimethoxyphenyl)-N-(4-(1-methyl-4-(trifluoromethyl)-1H-imidazol-2-yl)benzyl)-6,7-dihydro-5H-cyclopenta[d]pyrimidin-4-amine] | 50 to 75 | –
